“And” between values parts separate entries of the source, which are not always exact repeats. Identical values can stand only once.
What was measured:
Test in all cases: cells
[1] = system: RMG-I; format: functional, cell-based, Homo sapiens;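 also: growth inhibition of human RMG-I cells, read out with a cell viability assay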
Description: SANGER: Inhibition of human RMG-I cell growth in a cell viability assay.

[2] = system: SNU1; format: functional, cell-based; conditions: Homo sapiens;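 also: growth inhibition of human NCI-SNU-1 cells, measured with a cell viability assay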
Description: SANGER: Inhibition of human NCI-SNU-1 cell growth in a cell viability assay.

[3] = system: LN-405; format: functional, cell-based, Homo sapiens
Description: SANGER: Inhibition of human LN-405 cell growth in a cell viability assay.

[4] = system: BV-173; format: functional, cell-based; conditions: Homo sapiens
Description: SANGER: Inhibition of human BV-173 cell growth in a cell viability assay.

[5] = system: KY821; format: functional, cell-based; conditions: Homo sapiens;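 also: growth inhibition of human KY821 cells, read out by a cell viability assay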
Description: SANGER: Inhibition of human KY821 cell growth in a cell viability assay.

[6] = system: G-401; format: functional, cell-based, Homo sapiens
Description: SANGER: Inhibition of human G-401 cell growth in a cell viability assay.

[7] = system: HCC38; format: functional, cell-based, Homo sapiens;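 also: cell viability assay on the human HCC38 cell line, with IC50 marking the concentration that inhibits cell growth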
Description: SANGER: Inhibition of human HCC38 cell growth in a cell viability assay.

[8] = system: COLO-800; format: functional, cell-based, Homo sapiens;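 also: growth inhibition of COLO-800 cells, read out with a cell viability assay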
Description: SANGER: Inhibition of human COLO-800 cell growth in a cell viability assay.

[9] = system: COLO-679; format: functional, cell-based, Homo sapiens
Description: SANGER: Inhibition of human COLO-679 cell growth in a cell viability assay.

[10] = system: EW-1; format: functional, cell-based, Homo sapiens;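 also: growth inhibition of the human EW-1 cell line, read out by a cell viability assay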
Description: SANGER: Inhibition of human EW-1 cell growth in a cell viability assay.

[11] = system: EFO-21; format: functional, cell-based, Homo sapiens;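 also: growth inhibition of EFO-21 cells measured with a viability assay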
Description: SANGER: Inhibition of human EFO-21 cell growth in a cell viability assay.

[12] = system: IST-SL1; format: functional, cell-based, Homo sapiens;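 also: growth inhibition of human IST-SL1 cells, read out with a cell viability assay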
Description: SANGER: Inhibition of human IST-SL1 cell growth in a cell viability assay.

[13] = system: Detroit 562; format: functional, cell-based, Homo sapiens;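 also: growth inhibition of human Detroit 562 cells, read out by a cell viability assay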
Description: SANGER: Inhibition of human Detroit562 cell growth in a cell viability assay.

[14] = system: QIMR-WIL; format: functional, cell-based; conditions: Homo sapiens;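 also: growth inhibition of QIMR-WIL cells, read out with a cell viability assay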
Description: SANGER: Inhibition of human QIMR-WIL cell growth in a cell viability assay.

[15] = system: HDLM-2; format: functional, cell-based; conditions: Homo sapiens;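 also: cell viability assay measuring suppression of HDLM-2 proliferation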
Description: SANGER: Inhibition of human HDLM-2 cell growth in a cell viability assay.

[16] = system: CGTH-W-1; format: functional, cell-based, Homo sapiens;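 also: growth inhibition of human CGTH-W-1 cells measured by cell viability assay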
Description: SANGER: Inhibition of human CGTH-W-1 cell growth in a cell viability assay.

[17] = system: NB69; format: functional, cell-based, Homo sapiens;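 also: growth inhibition of NB69 cells, determined by a cell viability assay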
Description: SANGER: Inhibition of human NB69 cell growth in a cell viability assay.

[18] = system: ChaGo-K-1; format: functional, cell-based; conditions: Homo sapiens;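 also: growth inhibition of ChaGo-K-1 cells, read out with a cell viability assay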
Description: SANGER: Inhibition of human ChaGo-K-1 cell growth in a cell viability assay.

[19] = system: DSH1; format: functional, cell-based, Homo sapiens;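 also: growth inhibition of human DSH1 cells, measured with a cell viability readout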
Description: SANGER: Inhibition of human DSH1 cell growth in a cell viability assay.

[20] = system: CCRF-CEM; format: functional, cell-based; conditions: Homo sapiens;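 also: inhibition of CCRF-CEM cell growth, measured by a cell viability assay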
Description: SANGER: Inhibition of human CCRF-CEM cell growth in a cell viability assay.

[21] = system: LCLC-103H cell line; format: functional, cell-based, Homo sapiens
Description: SANGER: Inhibition of human LCLC-103H cell growth in a cell viability assay.

[22] = system: TE-5; format: functional, cell-based, Homo sapiens;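 also: inhibition of cell growth, read out by a cell viability assay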
Description: SANGER: Inhibition of human TE-5 cell growth in a cell viability assay.

[23] = system: OVCAR-8; format: functional, cell-based, Homo sapiens;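 also: growth inhibition of human OVCAR-8 cells, read out by a cell viability assay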
Description: SANGER: Inhibition of human OVCAR-8 cell growth in a cell viability assay.

[24] = system: CTV-1; format: functional, cell-based; conditions: Homo sapiens;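 also: growth inhibition of the cell line, read out with a cell viability assay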
Description: SANGER: Inhibition of human CTV-1 cell growth in a cell viability assay.

[25] = system: NCI-H1395; format: functional, cell-based, Homo sapiens;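 also: cell viability assay read-out quantifying reduced proliferation of human NCI-H1395 cells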
Description: SANGER: Inhibition of human NCI-H1395 cell growth in a cell viability assay.

[26] = system: COLO-741; format: functional, cell-based, Homo sapiens
Description: SANGER: Inhibition of human COLO-741 cell growth in a cell viability assay.

[27] = system: NEC8; format: functional, cell-based, Homo sapiens;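 also: growth inhibition of human NEC8 cells, read out by a cell viability assay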
Description: SANGER: Inhibition of human NEC8 cell growth in a cell viability assay.

[28] = system: no-11; format: functional, cell-based, Homo sapiens;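 also: growth inhibition of human NO-11 cells, read out with a cell viability assay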
Description: SANGER: Inhibition of human no-11 cell growth in a cell viability assay.

[29] = system: TGW; format: functional, cell-based; conditions: Homo sapiens;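 also: growth inhibition of human TGW cells, read out with a cell viability assay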
Description: SANGER: Inhibition of human TGW cell growth in a cell viability assay.

[30] = system: OMC-1; format: functional, cell-based, Homo sapiens;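 also: growth inhibition of the OMC-1 cell line, measured by a cell viability assay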
Description: SANGER: Inhibition of human OMC-1 cell growth in a cell viability assay.

[31] = system: HuP-T4; format: functional, cell-based, Homo sapiens;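 also: cell viability assay measuring how much HuP-T4 cell growth is inhibited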
Description: SANGER: Inhibition of human HuP-T4 cell growth in a cell viability assay.

[32] = system: HCC 2998; format: functional, cell-based, Homo sapiens;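 also: growth inhibition of human HCC2998 cells, measured with a cell viability read-out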
Description: SANGER: Inhibition of human HCC2998 cell growth in a cell viability assay.

[33] = system: ME-180; format: functional, cell-based; conditions: Homo sapiens;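 also: cell viability assay measuring growth inhibition of ME-180 cells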
Description: SANGER: Inhibition of human ME-180 cell growth in a cell viability assay.

[34] = system: NCI-H510A; format: functional, cell-based; conditions: Homo sapiens;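 also: growth inhibition of NCI-H510A cells, read out with a cell viability assay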
Description: SANGER: Inhibition of human NCI-H510A cell growth in a cell viability assay.

[35] = system: SK-N-AS; format: functional, cell-based, Homo sapiens;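 also: growth inhibition of human SK-N-AS cells, measured with a cell viability assay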
Description: SANGER: Inhibition of human SK-N-AS cell growth in a cell viability assay.

[36] = system: NCI-H2122; format: functional, cell-based, Homo sapiens;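 also: growth inhibition of the cells, read out with a cell viability assay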
Description: SANGER: Inhibition of human NCI-H2122 cell growth in a cell viability assay.

[37] = system: NCI-H650; format: functional, cell-based, Homo sapiens;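 also: growth inhibition of NCI-H650 cells, read out by a viability assay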
Description: SANGER: Inhibition of human NCI-H650 cell growth in a cell viability assay.

[38] = system: HAL-01; format: functional, cell-based; conditions: Homo sapiens;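 also: growth inhibition of human HAL-01 cells, read out with a cell viability assay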
Description: SANGER: Inhibition of human HAL-01 cell growth in a cell viability assay.

[39] = system: COLO-680N; format: functional, cell-based, Homo sapiens;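 also: cell viability assay used to measure inhibition of COLO-680N cell growth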
Description: SANGER: Inhibition of human COLO-680N cell growth in a cell viability assay.

[40] = system: FTC-133; format: functional, cell-based, Homo sapiens
[41] = system: MDA-MB-361; format: functional, cell-based, Homo sapiens
[42] = system: HTC-C3; format: functional, cell-based, Homo sapiens;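 also: inhibition of cell growth, read out with a cell viability assay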
Description: SANGER: Inhibition of human HTC-C3 cell growth in a cell viability assay.

[43] = system: HOP-92; format: functional, cell-based, Homo sapiens;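 also: cell viability readout, with IC50 reflecting inhibition of HOP-92 cell growth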
Description: SANGER: Inhibition of human HOP-92 cell growth in a cell viability assay.

[44] = system: DJM-1; format: functional, cell-based, Homo sapiens;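 also: growth inhibition of human DJM-1 cells, read out by a cell viability assay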
Description: SANGER: Inhibition of human DJM-1 cell growth in a cell viability assay.

[45] = system: NKM-1; format: functional, cell-based; conditions: Homo sapiens;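 also: growth inhibition of NKM-1 cells, read out with a cell viability assay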
Description: SANGER: Inhibition of human NKM-1 cell growth in a cell viability assay.

[46] = system: EOL1; format: functional, cell-based; conditions: Homo sapiens;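 also: growth inhibition of EoL-1 cells, read out by a cell viability assay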
Description: SANGER: Inhibition of human EoL-1-cell cell growth in a cell viability assay.

[47] = system: OS-RC-2; format: functional, cell-based, Homo sapiens;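 also: growth inhibition of human OS-RC-2 cells, measured by a cell viability assay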
Description: SANGER: Inhibition of human OS-RC-2 cell growth in a cell viability assay.

[48] = system: COLO-684; format: functional, cell-based; conditions: Homo sapiens
Description: SANGER: Inhibition of human COLO-684 cell growth in a cell viability assay.

[49] = system: SK-N-FI; format: functional, cell-based, Homo sapiens;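 also: cell viability assay measuring growth inhibition of human SK-N-FI cells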
Description: SANGER: Inhibition of human SK-N-FI cell growth in a cell viability assay.

[50] = system: GMS-10; format: functional, cell-based, Homo sapiens;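 also: growth inhibition of GMS-10 cells, read out as cell viability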
Description: SANGER: Inhibition of human GMS-10 cell growth in a cell viability assay.

[51] = system: HT-29; format: functional, cell-based, Homo sapiens;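 also: growth inhibition of human HT-29 cells, read out by a cell viability assay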
Description: SANGER: Inhibition of human HT-29 cell growth in a cell viability assay.

[52] = system: KURAMOCHI; format: functional, cell-based; conditions: Homo sapiens;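 also: growth inhibition of KURAMOCHI cells, read out with a cell viability assay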
Description: SANGER: Inhibition of human KURAMOCHI cell growth in a cell viability assay.

[53] = system: H4; format: functional, cell-based; conditions: Homo sapiens
Description: SANGER: Inhibition of human H4 cell growth in a cell viability assay.

What does the source list for `Cc1cc([C@@H](C)Nc2ccccc2C(=O)O)c2nc(N3CCOCC3)cc(=O)n2c1` [AZD-6482]?
IC50 ([1]; rmg-i): > 5.12 µM; IC50 [2]: > 5.12 µM; IC50 ([3]; Homo sapiens, LN-405): 2.44 µM; IC50 ([3]; ln-405): 2.9 µM; IC50 [4]: > 5.12 µM; IC50 [5]: > 5.12 µM; IC50 ([6]; g-401): 4.07 µM and > 5.12 µM; IC50 ([7]; hcc38): > 5.12 µM; IC50 ([8]; colo-800): > 5.12 µM; IC50 ([9]; Homo sapiens, COLO-679): > 5.12 µM; IC50 ([9]; colo-679): > 5.12 µM; IC50 ([10]; ew-1): > 5.12 µM; IC50 ([11]; efo-21): 5.04 µM and > 5.12 µM; IC50 ([12]; ist-sl1): > 5.12 µM; IC50 ([13]; detroit 562): 1.05 µM and 2.13 µM; IC50 [14]: 3.97 µM; IC50 [15]: > 5.12 µM; IC50 ([16]; cgth-w-1): > 5.12 µM; IC50 ([17]; Homo sapiens, NB69): > 5.12 µM; IC50 ([17]; nb69): > 5.12 µM; IC50 [18]: > 5.12 µM; IC50 ([19]; Homo sapiens, DSH1): > 5.12 µM; IC50 ([19]; dsh1): > 5.12 µM; IC50 [20]: 3.61 µM; IC50 ([21]; Homo sapiens, LCLC-103H): > 5.12 µM; IC50 ([21]; lclc-103h): > 5.12 µM; IC50 ([22]; Homo sapiens, TE-5): > 5.12 µM; IC50 ([22]; te-5): > 5.12 µM; IC50 ([23]; ovcar-8): > 5.12 µM; IC50 [24]: > 5.12 µM; IC50 ([25]; nci-h1395): > 5.12 µM; IC50 ([26]; colo-741): > 5.12 µM; IC50 ([27]; nec8): > 5.12 µM and 3.81 µM; IC50 [28]: > 5.12 µM; IC50 [29]: > 5.12 µM; IC50 ([30]; omc-1): > 5.12 µM; IC50 ([31]; hup-t4): > 5.12 µM; IC50 ([32]; hcc 2998): > 5.12 µM; IC50 [33]: > 5.12 µM; IC50 [34]: > 5.12 µM; IC50 ([35]; Homo sapiens, SK-N-AS): > 5.12 µM; IC50 ([35]; sk-n-as): > 5.12 µM; IC50 ([36]; nci-h2122): > 5.12 µM; IC50 ([37]; nci-h650): 1.3 µM and > 5.12 µM; IC50 [38]: 1.3 µM; IC50 ([39]; colo-680n): > 5.12 µM; IC50 ([40]; ftc-133): > 5.12 µM; IC50 ([41]; Homo sapiens, MDA-MB-361): 3.53 µM; IC50 ([41]; mda-mb-361): > 5.12 µM; IC50 ([42]; Homo sapiens, HTC-C3): > 5.12 µM; IC50 ([42]; htc-c3): > 5.12 µM; IC50 ([43]; hop-92): > 5.12 µM and 4.58 µM; IC50 ([44]; djm-1): > 5.12 µM; IC50 [45]: 1.29 µM; IC50 [46]: > 5.12 µM; IC50 ([47]; os-rc-2): 0.624 µM and > 5.12 µM; IC50 [48]: 2.2 µM; IC50 ([49]; sk-n-fi): > 5.12 µM; IC50 ([50]; Homo sapiens, GMS-10): > 5.12 µM; IC50 ([50]; gms-10): > 5.12 µM; IC50 ([51]; ht-29): > 5.12 µM

With `O=c1cc(-c2cccc3c2Sc2ccccc2S3)oc(N2CCOCC2)c1` [KU-55933] as the compound, how does the IC50 ([1]; Homo sapiens, RMG-I) read?
The IC50 was greater than 10 µM.

What about the IC50 [2] of the same compound?
The IC50 was greater than 10 µM.

What about the IC50 ([3]; Homo sapiens, LN-405) of the same compound?
Its IC50 is greater than 10 µM.

And the IC50 ([6]; Homo sapiens, G-401)?
Its IC50 is greater than 10 µM.

And the IC50 ([7]; Homo sapiens, HCC38)?
Its IC50 is greater than 10 µM.

What about the IC50 ([8]; Homo sapiens, COLO-800) of the same compound?
Its IC50 is greater than 10 µM.

What about the IC50 ([9]; Homo sapiens, COLO-679) of the same compound?
The IC50 was greater than 10 µM.

What about the IC50 ([10]; Homo sapiens, EW-1) of the same compound?
The IC50 was greater than 10 µM.

What about the IC50 ([11]; Homo sapiens, EFO-21) of the same compound?
The IC50 was greater than 10 µM.

What about the IC50 ([12]; Homo sapiens, IST-SL1) of the same compound?
The IC50 was greater than 10 µM.

What about the IC50 ([13]; Homo sapiens, Detroit 562) of the same compound?
The IC50 was greater than 10 µM.

What about the IC50 [14] of the same compound?
The IC50 was greater than 10 µM.

What about the IC50 [15] of the same compound?
Its IC50 is greater than 10 µM.

And the IC50 ([16]; Homo sapiens, CGTH-W-1)?
The IC50 was greater than 10 µM.

And the IC50 ([17]; Homo sapiens, NB69)?
The IC50 was greater than 10 µM.

What about the IC50 [18] of the same compound?
The IC50 was greater than 10 µM.

What about the IC50 ([19]; Homo sapiens, DSH1) of the same compound?
The IC50 was greater than 10 µM.

And the IC50 [20]?
The IC50 was greater than 10 µM.

And the IC50 ([21]; Homo sapiens, LCLC-103H)?
Its IC50 is greater than 10 µM.

And the IC50 ([22]; Homo sapiens, TE-5)?
The IC50 was greater than 10 µM.

What about the IC50 ([23]; Homo sapiens, OVCAR-8) of the same compound?
Its IC50 is greater than 10 µM.

What about the IC50 ([25]; Homo sapiens, NCI-H1395) of the same compound?
The IC50 was greater than 10 µM.

And the IC50 ([26]; Homo sapiens, COLO-741)?
The IC50 was greater than 10 µM.

What about the IC50 ([27]; Homo sapiens, NEC8) of the same compound?
The IC50 was greater than 10 µM.

And the IC50 [52]?
The IC50 was greater than 10 µM.

And the IC50 ([28]; Homo sapiens)?
The IC50 was greater than 10 µM.

What about the IC50 [29] of the same compound?
The IC50 was greater than 10 µM.

What about the IC50 ([30]; Homo sapiens, OMC-1) of the same compound?
Its IC50 is greater than 10 µM.

And the IC50 ([31]; Homo sapiens, HuP-T4)?
The IC50 was greater than 10 µM.

What about the IC50 ([32]; Homo sapiens, HCC 2998) of the same compound?
Its IC50 is greater than 10 µM.

What about the IC50 [33] of the same compound?
The IC50 was greater than 10 µM.

What about the IC50 ([35]; Homo sapiens, SK-N-AS) of the same compound?
The IC50 was greater than 10 µM.

And the IC50 ([36]; Homo sapiens, NCI-H2122)?
The IC50 was greater than 10 µM.

And the IC50 ([37]; Homo sapiens, NCI-H650)?
Its IC50 is greater than 10 µM.

And the IC50 [53]?
Its IC50 is greater than 10 µM.

What about the IC50 [38] of the same compound?
The IC50 was greater than 10 µM.

What about the IC50 ([39]; Homo sapiens, COLO-680N) of the same compound?
The IC50 was greater than 10 µM.

And the IC50 ([40]; Homo sapiens, FTC-133)?
The IC50 was greater than 10 µM.

What about the IC50 ([41]; Homo sapiens, MDA-MB-361) of the same compound?
The IC50 was greater than 10 µM.

And the IC50 ([42]; Homo sapiens, HTC-C3)?
Its IC50 is greater than 10 µM.

What about the IC50 ([43]; Homo sapiens, HOP-92) of the same compound?
Its IC50 is greater than 10 µM.

What about the IC50 ([44]; Homo sapiens, DJM-1) of the same compound?
Its IC50 is greater than 10 µM.

And the IC50 [45]?
The IC50 was greater than 10 µM.

And the IC50 ([47]; Homo sapiens, OS-RC-2)?
The IC50 was greater than 10 µM.

And the IC50 [48]?
Its IC50 is greater than 10 µM.

And the IC50 ([49]; Homo sapiens, SK-N-FI)?
Its IC50 is greater than 10 µM.

And the IC50 ([50]; Homo sapiens, GMS-10)?
Its IC50 is greater than 10 µM.

And the IC50 ([51]; Homo sapiens, HT-29)?
The IC50 was greater than 10 µM.

From ChEMBL document CHEMBL1201861, “Genomics of Drug Sensitity in Cancer screening data, Wellcome Trust Sanger Institute”
